In series [1] the test system is MDA-MB-231. Description: cells. The class given is cell-based. The note with it: Homo sapiens, MDA-MB-231, read-out: IC50 (in vitro toxicity).
The test system of another series is HS27A. Put plainly: cells. The series is classed as cell-based. To be noted: HS-27A, read-out: IC50 (in vitro toxicity).
The target in a further series is T1, hLAT2 (Homo sapiens, UniProt Q9UHI5).
T1 construct: expressed in transfected cells; host or cells: KB or LLCPK cells, tetracycline/doxycycline-inducible
T1 sequence (Q9UHI5 1-535): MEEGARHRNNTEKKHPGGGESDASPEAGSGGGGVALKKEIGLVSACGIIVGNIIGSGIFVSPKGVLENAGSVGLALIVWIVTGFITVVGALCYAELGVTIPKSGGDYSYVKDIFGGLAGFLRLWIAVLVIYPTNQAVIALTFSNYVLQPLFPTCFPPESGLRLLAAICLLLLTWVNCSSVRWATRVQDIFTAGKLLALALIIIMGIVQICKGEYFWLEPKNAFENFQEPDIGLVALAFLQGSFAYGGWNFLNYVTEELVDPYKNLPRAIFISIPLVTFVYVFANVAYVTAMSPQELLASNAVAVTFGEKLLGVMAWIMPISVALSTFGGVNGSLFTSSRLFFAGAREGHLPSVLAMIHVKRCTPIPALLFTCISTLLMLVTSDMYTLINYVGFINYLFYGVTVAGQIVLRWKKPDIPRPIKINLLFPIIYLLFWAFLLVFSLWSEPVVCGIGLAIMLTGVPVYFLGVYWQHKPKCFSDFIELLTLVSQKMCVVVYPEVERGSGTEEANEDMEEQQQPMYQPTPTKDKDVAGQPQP
T1 sequence (P08195 1-630 isoform P08195-1 partner): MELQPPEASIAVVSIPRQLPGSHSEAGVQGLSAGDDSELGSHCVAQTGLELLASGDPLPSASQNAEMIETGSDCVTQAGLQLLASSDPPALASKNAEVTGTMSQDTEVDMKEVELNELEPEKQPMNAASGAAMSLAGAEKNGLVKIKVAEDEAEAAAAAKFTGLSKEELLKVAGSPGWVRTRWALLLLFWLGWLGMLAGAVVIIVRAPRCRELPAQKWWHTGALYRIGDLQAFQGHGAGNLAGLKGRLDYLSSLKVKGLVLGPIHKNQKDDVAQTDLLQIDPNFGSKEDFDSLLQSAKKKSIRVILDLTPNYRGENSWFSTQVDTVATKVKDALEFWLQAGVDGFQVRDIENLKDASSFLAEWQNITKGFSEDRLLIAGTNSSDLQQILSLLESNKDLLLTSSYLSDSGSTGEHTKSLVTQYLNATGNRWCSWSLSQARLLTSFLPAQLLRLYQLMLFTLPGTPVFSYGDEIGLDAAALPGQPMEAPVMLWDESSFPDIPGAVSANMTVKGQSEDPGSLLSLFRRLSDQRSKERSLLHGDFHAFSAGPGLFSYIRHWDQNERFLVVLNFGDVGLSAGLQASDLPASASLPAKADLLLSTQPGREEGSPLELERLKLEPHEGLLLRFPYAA
Description: LAT2 uptake inhibition assay, radiolabeled competition uptake with [3H]-leucine. The class given is cell-based.

Another series has as its system LN229. Description: cells. To be noted: Homo sapiens, LN-229, read-out: IC50 (in vitro toxicity). The class given is cell-based.
The target of a further series is T2, hLAT1 (Homo sapiens, UniProt Q01650).
T2 construct: expressed in transfected cells; host or cells: LLCPK cells, tetracycline/doxycycline-inducible, boosted with sodium butyrate
Put plainly: LAT1 uptake inhibition assay, radiolabeled competition uptake with [3H]-Gabapentin. The series is classed as cell-based.

Series [2] concerns MDA-MB-231. Description: Triple negative breast cancer study, IV dosing. The series is classed as in vivo, mouse. The note with it: IV once a week for 8 weeks. The method, then:
The efficacy of compounds provided by the present disclosure was evaluated on a triple negative breast cancer xenograft model—MDA-MB-231. Human triple negative breast cancer cells were implanted into the flank of nude mice and the study was initiated after the volume of the tumors was 150 mm^3. The animals were IV dosed once a week for 8 weeks with either vehicle or 5 mg/kg of compound (5), or 20 mg/kg compound (7). The tumor volume, body weight, white blood cell count, and granulocyte count were determined during the study and 12 days after the final dose was administered.

The next series relates to MV411. Put plainly: cells. The series is classed as cell-based. The note with it: Homo sapiens, MV4-11, read-out: IC50 (in vitro toxicity).
The subject of a further series is AMO1. Description: cells. The class given is cell-based. The note with it: Homo sapiens, AMO1, read-out: IC50 (in vitro toxicity).
The test system of the next series is 42MGBA. Description: cells. The class given is cell-based. The note with it: read-out: IC50 (in vitro toxicity).
For series [3], the system named is LLCPK cells conditionally expressing hLAT1. Put plainly: cells. The note with it: 0.5 h, read-out: LC50, concentration of test compound at which the percent surviving cells was 50%.
In the next series the test system is HS5. Put plainly: cells. The class given is cell-based. To be noted: HS5, read-out: IC50 (in vitro toxicity).
The subject of a further series is Raji. Put plainly: cells. The series is classed as cell-based. To be noted: Homo sapiens, read-out: IC50 (in vitro toxicity).
For another series, the system named is U251. Description: cells. The series is classed as cell-based. To be noted: Homo sapiens, U-251, read-out: IC50 (in vitro toxicity).
The subject of a further series is 794. Description: cells. The class given is cell-based. To be noted: read-out: IC50 (in vitro toxicity).
The subject of the next series is L363. Description: cells. The class given is cell-based. To be noted: Homo sapiens, L-363, read-out: IC50 (in vitro toxicity).
A further series relates to PC3. Put plainly: cells. The series is classed as cell-based. To be noted: Homo sapiens, PC-3, read-out: IC50 (in vitro toxicity).
The subject of the next series is MM1.S. Put plainly: cells. The note with it: Homo sapiens, read-out: IC50 (in vitro toxicity). The series is classed as cell-based.
The test system of a further series is RPMI8266. Put plainly: cells. The class given is cell-based. The note with it: RPMI8266, read-out: IC50 (in vitro toxicity).
The subject of the next series is U266. Description: cells. The class given is cell-based. To be noted: Homo sapiens, U-266, read-out: IC50 (in vitro toxicity).
In series [4] the test system is Human prostate cancer PC3 cells. To be noted: mouse, in vivo.
The test system of the next series is D283. Description: cells. To be noted: D283, read-out: IC50 (in vitro toxicity). The series is classed as cell-based.
A further series relates to KMS34. Put plainly: cells. The note with it: KMS-34, read-out: IC50 (in vitro toxicity). The class given is cell-based.
The next series relates to KMS11. Description: cells. The series is classed as cell-based. To be noted: Homo sapiens, KMS-11, read-out: IC50 (in vitro toxicity).
In a further series the test system is G55. Description: cells. The series is classed as cell-based. To be noted: read-out: IC50 (in vitro toxicity).
A further series has as its system DBRTG. Put plainly: cells. To be noted: read-out: IC50 (in vitro toxicity). The series is classed as cell-based.
A further series relates to U251 MG. Description: Orthotopic glioblastoma study (Example 84). The class given is in vivo, mouse. To be noted: at a dose of 10 mg/kg, IV. The method, then:
The efficacy of compounds provided by the present disclosure was evaluated using an orthotopic luciferase human glioblastoma model—U251 MG. Human glioblastoma cells were intracolonically injected (3×10^5 cells/3 μL) into athymic mice (female, 4-5 weeks-old, nu/un homozygous). Treatment began when the BLI reached a log-phase growth, at about 14 days after injection. Ten mice were assigned to each arm of the study. The mice were dosed with vehicle (IP, once weekly for 4 weeks), compound (5) (5 mg/kg, IV once weekly for 4 weeks), compound (5) (10 mg/kg, IV once weekly for 4 weeks), compound (40) (10 mg/kg, IV once weekly for 4 weeks), or compound (50) (20 mg/kg, IV single dose). The tumor volume was measured using bioluminescence imaging.

In another series the test system is MCF7. Description: In vitro cytotoxicity, MCF7. The series is classed as cell-based. The note with it: Homo sapiens, MCF7, read-out: IC50 (in vitro toxicity).
Another series deals with HCT116. Put plainly: In vitro cytotoxicity, HCT116. The class given is cell-based. The note with it: Homo sapiens, HCT-116, read-out: IC50 (in vitro toxicity).
The subject of another series is B16 melanoma cells. Put plainly: In vivo tumor growth suppression, B16 efficacy model. Details: species or system mouse. To be noted: C57BL/6 mice, IP daily for 12 days; test compound 5 mg/kg and 10 mg/kg, melphalan 2.5 mg/kg.
For series [5], the system named is human bone marrow cells (erythroid and myeloid progenitors). Put plainly: In vitro bone marrow toxicity, colony forming cell assays. The note with it: 14 days in culture, methylcellulose media.
The subject of series [6] is LLCPK cells conditionally expressing hLAT1.

SMILES strings stand for the structures.

T2 sequence (Q01650 whole entry, one chain of several): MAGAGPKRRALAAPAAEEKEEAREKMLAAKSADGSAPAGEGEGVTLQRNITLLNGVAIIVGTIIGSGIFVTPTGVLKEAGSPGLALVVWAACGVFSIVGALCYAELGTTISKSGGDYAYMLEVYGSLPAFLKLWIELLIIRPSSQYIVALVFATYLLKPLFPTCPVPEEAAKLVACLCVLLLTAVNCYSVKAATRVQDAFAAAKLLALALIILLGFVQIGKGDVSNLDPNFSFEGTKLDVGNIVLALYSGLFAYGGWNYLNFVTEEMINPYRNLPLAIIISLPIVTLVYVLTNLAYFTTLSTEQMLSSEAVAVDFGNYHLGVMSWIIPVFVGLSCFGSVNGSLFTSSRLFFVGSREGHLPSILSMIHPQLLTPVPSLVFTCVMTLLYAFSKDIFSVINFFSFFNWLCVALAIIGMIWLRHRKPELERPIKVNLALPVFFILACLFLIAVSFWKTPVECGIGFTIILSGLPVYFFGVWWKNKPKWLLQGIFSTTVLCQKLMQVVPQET

As for `COc1ccc(N(CCCl)CCCl)cc1C[C@H](N)CC(=O)O` [Compound 7, (3S)-3-Amino-4-[5-[bis(2-chloroethyl)amino]-2-methoxy-phenyl]butanoic Acid], the IC50 – broadly, the midpoint of a concentration-inhibition curve – with MDA-MB-231 [1] is below 100 µM; with HS27A, above 100 µM; at hLAT2 it was below 100 µM; in the series with LN229, below 100 µM; at hLAT1, below 100 µM; in the series with MV411, below 100 µM. The IC50 in the series on AMO1 is above 100 µM; in the series on 42MGBA it was below 100 µM; in the series on HS5, above 100 µM; in the series on Raji, below 100 µM; in the series with U251 it was below 100 µM; in the series on 794, below 100 µM. For the same molecule, the IC50 with L363 was above 100 µM; in the series with PC3 it was below 100 µM; in the series with MM1.S it was below 100 µM; with RPMI8266, above 100 µM; in the series on U266, below 100 µM; with D283 it was below 100 µM. Further, the IC50 with KMS34 was above 100 µM; in the series with KMS11, above 100 µM; in the series on G55, below 100 µM; in the series on DBRTG, below 100 µM. Moreover, the body weight entry (in the series on MDA-MB-231 [2]; in [4]) was “maintained weight” each time. Further, the myelosuppression entry (in the series with MDA-MB-231 [2]; in [4]) was “not dectected” in each case. Besides, the tumor growth suppression entry in the series on MDA-MB-231 [2] (nude mice, 5 mg/kg compound (5), 20 mg/kg compound (7)) was “dose-dependent tumor growth suppression”; in series [4] it was “dose-dependent tumor growth suppression”. Also, in series [3], the CC50 is below 1 µM.
In the case of `Cc1ccc(N(CCCl)CCCl)c(C[C@H](N)CC(=O)O)c1` [Compound 50, (3S)-3-amino-4-[2-[bis(2-chloroethyl)amino]-5-methyl-phenyl]butanoic acid], the IC50 in the series with MDA-MB-231 [1], at hLAT2, in the series with LN229, with MV411, with 42MGBA and with Raji was below 100 µM throughout. Also, the half-maximal inhibitory concentration (IC50) with U251, in the series on 794, in the series on MCF7, in the series on PC3, in the series with HCT116 and in the series on D283 was below 100 µM in each case. For the same molecule, the IC50 in the series with G55 and in the series with DBRTG was below 100 µM throughout. Also, the “glioblastoma tumor growth (bioluminescence imaging)” value with U251 MG was “suppressed glioblastoma tumor growth”.
As to `COc1ccc(N(CCCl)CCCl)c(C[C@H](N)CC(=O)O)c1` [Compound 51, (3S)-3-amino-4-[2-[bis(2-chloroethyl)amino]-5-methoxy-phenyl]butanoic acid], the IC50 was below 100 µM in the series with MDA-MB-231 [1]; above 100 µM with HS27A; below 100 µM on hLAT2; below 100 µM in the series with LN229; below 100 µM in the series on MV411; above 100 µM in the series with AMO1. The IC50 with 42MGBA is below 100 µM; in the series on HS5 it was above 100 µM; with Raji it was below 100 µM; in the series on U251, below 100 µM; in the series with 794, below 100 µM; in the series with L363, below 100 µM. Also, the IC50 was below 100 µM in the series with MCF7; below 100 µM with PC3; below 100 µM in the series on HCT116; below 100 µM in the series on MM1.S; above 100 µM in the series on RPMI8266; below 100 µM in the series with U266. For the same molecule, the IC50 with D283 was below 100 µM; in the series on KMS34 it was below 100 µM; in the series on KMS11, above 100 µM; with G55, below 100 µM; with DBRTG, below 100 µM. The CC50 in series [3] is below 1 µM. Besides, the body weight entry in series [4] is “maintained weight”. In addition, the myelosuppression entry in series [4] was “not dectected”. Moreover, the tumor growth suppression result in series [4] is listed as “dose-dependent tumor growth suppression”.
In the case of `N[C@@H](Cc1ccc(N(CCCl)CCCl)cc1)C(=O)O` [melphalan, reference compound], in the series with B16 melanoma cells, the “Tumor Growth (% Control), 5 days post-dosing” value worked out at 56 % Control and the “Tumor Growth (% Control), End of dosing” value stood at 33 % Control. In addition, the “toxicity to bone marrow progenitor cells (BFU-E, CFU-GM, Total CFC)” value in series [5] is “more toxic to bone marrow progenitor cells than compound (5)”. In series [6], the “percent surviving cells in cells expressing LAT1 versus cells not expressing LAT1 (in words)” value is reported as “about the same”.

Source of the values: US10017459B2, “β-substituted β-amino acids and analogs as chemotherapeutic agents and uses thereof” (Quadriga Biosciences, Inc., priority 2015, dated 2018).
